Assay results: patent US20120082658A1, “Methods for the Treatment of Allergic Diseases” (VentiRx Pharmaceuticals, Inc., priority 2010, published 2012)

Key:
human TLR8 = target: T1, human TLR8 (Homo sapiens, UniProt Q9NR97); assay: HEK293 cells transfected with human TLR8, NF-κB driven reporter; type: cell-based; conditions: read-out: half maximal effective concentration (EC50), activation of TLR8
T1 construct: expressed in transfected cells; host or cells: HEK293
T1 sequence (Q9NR97 27-1041): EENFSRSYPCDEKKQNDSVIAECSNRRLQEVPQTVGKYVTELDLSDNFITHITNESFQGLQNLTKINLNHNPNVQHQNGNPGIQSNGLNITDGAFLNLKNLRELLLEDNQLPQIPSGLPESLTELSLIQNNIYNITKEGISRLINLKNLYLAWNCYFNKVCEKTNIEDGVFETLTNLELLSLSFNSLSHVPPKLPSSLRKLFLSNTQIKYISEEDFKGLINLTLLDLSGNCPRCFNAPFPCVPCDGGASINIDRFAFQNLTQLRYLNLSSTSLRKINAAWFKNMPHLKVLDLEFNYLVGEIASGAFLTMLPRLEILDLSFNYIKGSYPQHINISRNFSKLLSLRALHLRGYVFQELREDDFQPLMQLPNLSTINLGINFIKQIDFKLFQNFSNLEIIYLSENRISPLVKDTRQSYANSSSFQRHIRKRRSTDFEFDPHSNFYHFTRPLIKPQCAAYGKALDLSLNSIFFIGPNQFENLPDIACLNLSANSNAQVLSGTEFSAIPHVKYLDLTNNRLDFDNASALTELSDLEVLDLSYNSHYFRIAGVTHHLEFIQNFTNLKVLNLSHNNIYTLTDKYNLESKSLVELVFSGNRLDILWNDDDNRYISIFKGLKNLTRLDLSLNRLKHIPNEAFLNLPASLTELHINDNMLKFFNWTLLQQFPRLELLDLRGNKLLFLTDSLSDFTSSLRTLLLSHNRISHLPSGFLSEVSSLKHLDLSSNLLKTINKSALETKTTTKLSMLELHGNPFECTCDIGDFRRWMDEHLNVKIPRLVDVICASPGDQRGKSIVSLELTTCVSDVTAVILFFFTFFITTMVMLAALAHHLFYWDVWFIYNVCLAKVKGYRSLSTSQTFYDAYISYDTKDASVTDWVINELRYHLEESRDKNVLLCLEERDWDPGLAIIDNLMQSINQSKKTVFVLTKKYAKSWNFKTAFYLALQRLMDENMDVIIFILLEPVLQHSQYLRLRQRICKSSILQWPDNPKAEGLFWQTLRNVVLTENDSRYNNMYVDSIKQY
Experimental: (§1) FIG. 8 is two graphs depicting the potency and selectivity of VTX-378 for TLR8. The half-maximal effective concentration (EC50) for VTX-378 activation of TLR8 and TLR7 was assessed in peripheral blood mononuclear cells (PBMCs) by the amount of secreted TNFα (A) and by the activity of NF-κB (B) from 15 healthy donors and also in HEK293 cells transfected with various human TLRs.
(§2) Preclinical studies were performed with VTX-378, the active pharmaceutical ingredient in VTX-1463. The specificity of VTX-378 for human TLR8 relative to other TLRs was assessed in transfected Human Embryonic Kidney 293 (HEK293) cells engineered to express individual TLRs (2-9) via transfection, and assessed using an NF-κB driven reporter system. […] The pharmacologic effects of VTX-378 were characterized in vitro using isolated human peripheral blood mononuclear cells (PBMCs).

TLR9 = target: T2, TLR9 (Homo sapiens, UniProt Q9NR96); assay: HEK293 cells transfected with human TLR9, NF-κB driven reporter; type: cell-based; conditions: concentration up to 25 uM
T2 construct: expressed in transfected cells; host or cells: HEK293
T2 sequence (Q9NR96 26-1032): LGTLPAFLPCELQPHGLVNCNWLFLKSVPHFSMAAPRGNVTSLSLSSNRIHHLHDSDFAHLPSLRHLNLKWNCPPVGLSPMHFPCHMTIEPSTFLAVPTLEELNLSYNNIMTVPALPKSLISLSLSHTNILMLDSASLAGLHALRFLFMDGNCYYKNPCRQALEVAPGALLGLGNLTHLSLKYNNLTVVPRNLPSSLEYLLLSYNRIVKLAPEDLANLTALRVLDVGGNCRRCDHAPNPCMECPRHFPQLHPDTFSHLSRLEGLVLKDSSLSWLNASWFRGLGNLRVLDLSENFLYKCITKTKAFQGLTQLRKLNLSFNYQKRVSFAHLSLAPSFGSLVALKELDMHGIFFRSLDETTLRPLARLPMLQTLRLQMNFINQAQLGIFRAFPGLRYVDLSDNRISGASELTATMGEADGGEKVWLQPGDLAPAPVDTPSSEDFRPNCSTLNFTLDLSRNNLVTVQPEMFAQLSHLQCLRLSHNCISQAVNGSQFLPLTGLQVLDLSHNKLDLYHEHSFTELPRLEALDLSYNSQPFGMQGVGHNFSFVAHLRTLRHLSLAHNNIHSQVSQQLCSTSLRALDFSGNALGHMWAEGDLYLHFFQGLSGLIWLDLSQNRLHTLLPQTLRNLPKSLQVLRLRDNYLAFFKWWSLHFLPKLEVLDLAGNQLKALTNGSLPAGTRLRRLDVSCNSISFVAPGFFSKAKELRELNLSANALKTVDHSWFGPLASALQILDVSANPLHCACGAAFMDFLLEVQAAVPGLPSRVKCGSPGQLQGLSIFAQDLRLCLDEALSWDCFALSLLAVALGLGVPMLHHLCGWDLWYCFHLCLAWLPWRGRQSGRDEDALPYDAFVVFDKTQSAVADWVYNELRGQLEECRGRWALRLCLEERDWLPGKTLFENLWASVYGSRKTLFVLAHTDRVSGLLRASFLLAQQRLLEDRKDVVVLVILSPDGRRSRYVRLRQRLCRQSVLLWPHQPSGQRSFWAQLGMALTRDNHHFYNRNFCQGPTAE
Experimental: as §1, §2

EC50 (human TLR8): ~100 nM
activity on TLR9 (TLR9): no detectable activity
Compound: CCCN(CCC)C(=O)C1=Cc2ccc(-c3ccc(C(=O)N4CCCC4)cc3)cc2N=C(N)C1 [VTX-378]
